PubChem BioAssay AID2060348 (Molecular Pharmacology Branch, DTP, NCI, 2025)
Where “and” joins values, the source holds several entries; their conditions need not be identical. Equal values may be shown once.

Tested on: 885724-159-R-J1-PDC spheroids viability
Assay: Anticancer human tumor 885724-159-R-J1-PDC patient-derived pancreatic adenocarcinoma cell line growth inhibition [TAK]
Conditions: spheroids with HUVEC and MSC; for viability, T/C: stronger effect = lower value
Outline: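 Tumor cells were grown as spheroids with HUVEC and hMSC (60:25:15) and treated with targeted agents combined with TAK-243 or ipatasertib. Drugs were tested in half-log steps down from near the clinical Cmax, or from 10 microM where Cmax was unknown.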
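Also: spheroids exposed to drugs for seven days.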
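For viability, T/C in this document: 100% = DMSO vehicle control viability.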

`Cc1nc(NC(=O)N2CCCC2C(N)=O)sc1-c1ccnc(C(C)(C)C(F)(F)F)c1` (centres undefined) was tested, and the viability, T/C (compound 0.0316 µM) was 100% and 108%, the viability, T/C (compound 0.1 µM) was 91.1% and 88.8% and the viability, T/C (compound 0.316 µM) was 72.9% and 70.5%. For the same compound, the viability, T/C (compound 1 µM) was 55.2% and 64.1%, the viability, T/C (compound 3.16 µM) was 42.3% and 43.4% and the viability, T/C (compound 10 µM) was 26.8% and 29.2%. The IC50 (curve of compound) was 1590 nM and 1990 nM.

In the case of `CCCS(=O)(=O)Nc1ccc(F)c(C(=O)c2c[nH]c3ncc(-c4ccc(Cl)cc4)cc23)c1F`, the viability, T/C (compound 0.316 µM) is reported as 145% and 137%, the viability, T/C (compound 1 µM) is reported as 179% and 154% and the viability, T/C (compound 3.16 µM) is reported as 187% and 177%. The viability, T/C (compound 10 µM) was 96.5% and 86.4%, the viability, T/C (compound 31.6 µM) was 159% and 132% and the viability, T/C (compound 100 µM) was 150% and 129%. For the same compound, the IC50 (curve of compound) was > 100000 nM.

For `CC(C)NCC(C(=O)N1CCN(c2ncnc3c2C(C)CC3O)CC1)c1ccc(Cl)cc1` (centres undefined), the viability, T/C (compound 0.3 µM) was 64.1% [middle of 10 runs], the viability, T/C (compound 0.949 µM) was 60.5% [middle of 10 runs] and the viability, T/C (compound 3 µM) was 55.2% [middle of 10 runs]. For the same compound, the viability, T/C (compound 9.49 µM) was 47.5% [middle of 10 runs] and the viability, T/C (compound 30 µM) was 32.8% [middle of 10 runs].

For `CC(=O)Nc1cccc(-n2c(=O)n(C3CC3)c(=O)c3c(Nc4ccc(I)cc4F)n(C)c(=O)c(C)c32)c1` + CC(C)NCC(C(=O)N1CCN(c2ncnc3c2C(C)CC3O)CC1)c1ccc(Cl)cc1, the IC50 (curve of first compound, second compound 0.3 µM) was 0.357 nM, the IC50 (curve of first compound, second compound 0.949 µM) was 0.148 nM and the IC50 (curve of first compound, second compound 3 µM) was 0.118 nM. The IC50 (curve of first compound, second compound 9.49 µM) was < 0.0949 nM, the IC50 (curve of first compound, second compound 30 µM) was < 0.0949 nM and the viability, T/C (second compound 0.3 µM, first compound 94.9 pM) was 62.1%. It also gave a viability, T/C (second compound 0.3 µM, first compound 0.0003 µM) of 52.4%, a viability, T/C (second compound 0.3 µM, first compound 0.000949 µM) of 39.4% and a viability, T/C (second compound 0.3 µM, first compound 0.003 µM) of 29.7%. The viability, T/C (second compound 0.3 µM, first compound 0.00949 µM) was 19.8%, the viability, T/C (second compound 0.3 µM, first compound 0.03 µM) was 12.7% and the viability, T/C (second compound 0.949 µM, first compound 94.9 pM) was 51.8%. For the same compound, the viability, T/C (second compound 0.949 µM, first compound 0.0003 µM) was 46.9%, the viability, T/C (second compound 0.949 µM, first compound 0.000949 µM) was 39.5% and the viability, T/C (second compound 0.949 µM, first compound 0.003 µM) was 26.4%. It also gave a viability, T/C (second compound 0.949 µM, first compound 0.00949 µM) of 16.5%, a viability, T/C (second compound 0.949 µM, first compound 0.03 µM) of 9.03% and a viability, T/C (second compound 3 µM, first compound 94.9 pM) of 50.9%. It also gave a viability, T/C (second compound 3 µM, first compound 0.0003 µM) of 47%, a viability, T/C (second compound 3 µM, first compound 0.000949 µM) of 37.3% and a viability, T/C (second compound 3 µM, first compound 0.003 µM) of 27.7%. The viability, T/C (second compound 3 µM, first compound 0.00949 µM) was 12.6%, the viability, T/C (second compound 3 µM, first compound 0.03 µM) was 7.15% and the viability, T/C (second compound 9.49 µM, first compound 94.9 pM) was 42.9%. The viability, T/C (second compound 9.49 µM, first compound 0.0003 µM) was 39.1%, the viability, T/C (second compound 9.49 µM, first compound 0.000949 µM) was 31.9% and the viability, T/C (second compound 9.49 µM, first compound 0.003 µM) was 20.5%. For the same compound, the viability, T/C (second compound 9.49 µM, first compound 0.00949 µM) was 9.73%, the viability, T/C (second compound 9.49 µM, first compound 0.03 µM) was 4.47% and the viability, T/C (second compound 30 µM, first compound 94.9 pM) was 29.2%. For the same compound, the viability, T/C (second compound 30 µM, first compound 0.0003 µM) was 23.4%, the viability, T/C (second compound 30 µM, first compound 0.000949 µM) was 15.1% and the viability, T/C (second compound 30 µM, first compound 0.003 µM) was 6.5%. The viability, T/C (second compound 30 µM, first compound 0.00949 µM) was 4.94% and the viability, T/C (second compound 30 µM, first compound 0.03 µM) was 2.14%.
